Data on 5 molecules can be found in US8592367B2, “Nodule specific medicago peptides having antimicrobial activity and pharmaceutical compositions containing the same” (priority 2009, dated 2013).

The test system of one assay is Fusarium graminearum. The class given is cell-based. On the set-up: key: +++: high sensitivity, no hyphal growth; ++: medium sensitivity; +: low sensitivity; −: no effect. The settings on record: 24 h.
A further assay deals with Candida parapsilosis. The assay can be described thus: Antifungal activity in 96-well microtiter plates. The class given is cell-based. On the set-up: key: +++: high sensitivity, no hyphal growth; ++: medium sensitivity; +: low sensitivity; −: no effect. The settings on record: 24 h.
Assay [1] relates to Rhizopus stolonifer var. stolonifer. The assay can be described thus: Antifungal activity in 96-well microtiter plates. The class given is cell-based. On the set-up: key: +++: high sensitivity, no hyphal growth; ++: medium sensitivity; +: low sensitivity; −: no effect. The conditions noted are these: 24 h.
In a further assay the test system is Aspergillus flavus. The assay can be described thus: Antifungal activity in 96-well microtiter plates. The class given is cell-based. On the set-up: key: +++: high sensitivity, no hyphal growth; ++: medium sensitivity; +: low sensitivity; −: no effect. The conditions noted are these: 24 h.
A further assay relates to Candida crusei. Put plainly: Antifungal activity in 96-well microtiter plates. The class given is cell-based. On the set-up: key: +++: high sensitivity, no hyphal growth; ++: medium sensitivity; +: low sensitivity; −: no effect. The conditions noted are these: 24 h.
The test system of a further assay is Candida albicans. The assay can be described thus: Antifungal activity in 96-well microtiter plates. The class given is cell-based. On the set-up: key: +++: high sensitivity, no hyphal growth; ++: medium sensitivity; +: low sensitivity; −: no effect. The settings on record: 24 h.
The next assay concerns Aspergillus niger. The assay can be described thus: Antifungal activity in 96-well microtiter plates. The class given is cell-based. On the set-up: key: +++: high sensitivity, no hyphal growth; ++: medium sensitivity; +: low sensitivity; −: no effect. The conditions noted are these: 24 h.
The test system of assay [2] is Clavibacter michigense. The assay can be described thus: CFU determination, broad spectrum activity. The conditions noted are these: 50 μg/ml, untreated 10^9. The class given is cell-based.
The test system of assay [3] is Staphylococcus aureus. The assay can be described thus: CFU determination, broad spectrum activity. The class given is cell-based. The conditions noted are these: 50 μg/ml, untreated 10^6.
For assay [4], the system named is Pseudomonas syringae pv tomato DC3000. Put plainly: PI staining, broad spectrum activity. The class given is cell-based. The settings on record: 50 μg/ml.
In assay [5] the test system is Clavibacter michigense. The assay can be described thus: PI staining, broad spectrum activity. The class given is cell-based. The conditions noted are these: 50 μg/ml.
Assay [6] concerns Curtobacterium, flaccumfaciens. Put plainly: CFU determination, broad spectrum activity. The conditions noted are these: 50 μg/ml, untreated 10^9. The class given is cell-based.
The test system of assay [7] is Xanthomonas 2880. The assay can be described thus: PI staining, broad spectrum activity. The class given is cell-based. The settings on record: 50 μg/ml.
In assay [8] the test system is Xanthomonas 2880. The assay can be described thus: CFU determination, broad spectrum activity. The class given is cell-based. The settings on record: 50 μg/ml, Xanthomonas 2880, untreated 10^7.
Assay [9] relates to Curtobacterium, flaccumfaciens. The assay can be described thus: PI staining, broad spectrum activity. The class given is cell-based. The conditions noted are these: 50 μg/ml.
For assay [10], the system named is Sinorhizobium meliloti AK631. The assay can be described thus: PI staining of Sinorhizobium meliloti. The conditions noted are these: 50 μg/ml; for PI staining (PI uptake): FIG. 2A; for PI: Sinorhizobium meliloti (AK631).
Assay [11] has as its system Bacillus subtilis. Put plainly: CFU determination, broad spectrum activity. The class given is cell-based. The conditions noted are these: 50 μg/ml, untreated 10^6.
In assay [12] the test system is Bacillus subtilis. The assay can be described thus: PI staining, broad spectrum activity. The class given is cell-based. The conditions noted are these: 50 μg/ml.
For assay [13], the system named is Staphylococcus aureus. The assay can be described thus: PI staining, broad spectrum activity. The class given is cell-based. The settings on record: 50 μg/ml.
Assay [14] deals with Pseudomonas syringae pv tomato DC3000. Put plainly: CFU determination, broad spectrum activity. The settings on record: 50 μg/ml, Pseudomonas syringae pv tomato DC3000, untreated 10^7. The class given is cell-based.
The subject of assay [15] is Sinorhizobium meliloti AK631. The assay can be described thus: CFU determination of Sinorhizobium meliloti. The conditions noted are these: for CFU % / CFU (colony/ml): 1 hr; for CFU determination (colony formation): 3 hours, 2-3×10^6 bacteria, FIG. 2B; for CFU: Sinorhizobium meliloti (AK631), untreated 10^7; for eradication of the bacteria: from the low dose of 20 μg/ml.

The test system of assay [16] is Pseudomonas aeruginosa. Put plainly: CFU determination, broad spectrum activity. The class given is cell-based. The conditions noted are these: 50 μg/ml, Pseudomonas aeruginosa, untreated 10^7.
The test system of assay [17] is Pseudomonas aeruginosa. Put plainly: PI staining, broad spectrum activity. The conditions noted are these: 50 μg/ml. The class given is cell-based.

“Also recorded” adds a separate entry of the source. Like-named read-outs stand apart in the source and are kept apart here.

For the molecule `C[C@@H]1[C@H](O)[C@@H](C)/C=C/C=C/C=C/C=C/C=C/C=C/C=C/[C@H](O[C@@H]2O[C@H](C)[C@@H](O)[C@H](N)[C@@H]2O)C[C@@H]2O[C@](O)(C[C@@H](O)C[C@@H](O)[C@H](O)CC[C@@H](O)C[C@@H](O)CC(=O)O[C@H]1C)C[C@H](O)[C@H]2C(=O)O` [AMB, Amfotericin B, reference compound], the “Fungal (hyphal) growth, sensitivity” value was “++” with Fusarium graminearum (125 μg/ml); “+++” with Candida parapsilosis (125 μg/ml); “+++” in assay [1] (125 μg/ml); “+++” in the assay on Aspergillus flavus (125 μg/ml); “+++” with Candida crusei (125 μg/ml); “+++” with Candida albicans (125 μg/ml). The “Fungal (hyphal) growth, sensitivity” value with Aspergillus niger (125 μg/ml) was “+++”.

For “NCR035: cationic NCR peptide (SFLGTFISSCKRDKDCPKLYGANFRCRKGTCVPPI; Peptide derived from Medicago truncatula)”, the “Fungal (hyphal) growth, sensitivity” value in the assay with Fusarium graminearum (25 μg/ml) is listed as “−”; in the assay with Fusarium graminearum (50 μg/ml) it was “+”; in the assay with Fusarium graminearum (100 μg/ml), “++”; in the assay on Candida parapsilosis (25 μg/ml), “+”; in the assay on Candida parapsilosis (50 μg/ml), “++”; in the assay with Candida parapsilosis (100 μg/ml), “++”. The “Fungal (hyphal) growth, sensitivity” value was “−” in assay [1] (25 μg/ml); “+” in assay [1] (50 μg/ml); “++” in assay [1] (100 μg/ml); “−” with Aspergillus flavus (25 μg/ml); “+” in the assay on Aspergillus flavus (50 μg/ml); “++” in the assay with Aspergillus flavus (100 μg/ml). Further, the “Fungal (hyphal) growth, sensitivity” value in the assay on Candida crusei (25 μg/ml) is “+”; in the assay on Candida crusei (50 μg/ml), “++”; with Candida crusei (100 μg/ml), “++”; in the assay on Candida albicans (25 μg/ml) it was “+”; in the assay with Candida albicans (50 μg/ml), “++”; in the assay on Candida albicans (100 μg/ml) it was “++”. The “Fungal (hyphal) growth, sensitivity” value is given as “−” in the assay on Aspergillus niger (25 μg/ml), “−” in the assay on Aspergillus niger (50 μg/ml) and “+” in the assay on Aspergillus niger (100 μg/ml). The CFU result in the assay on Clavibacter michigense [2] is on record as “CFU: 10^4”; in the assay on Staphylococcus aureus [3] it was “CFU: 10^6”; in [6], “CFU: 10^5”; in the assay on Xanthomonas 2880 [8], “CFU: 10^2”; in the assay with Bacillus subtilis [11], “CFU: 10^3”; in assay [14] it was “CFU: 10^7”. Further, the CFU entry in assay [15] (50 μg/ml) is listed as “CFU: 0”. Also, the PI entry is reported as “PI: 100%” in assay [4]; “PI: 110%” in the assay on Clavibacter michigense [5]; “PI: 100%” in the assay with Xanthomonas 2880 [7]; “PI: 78%” in [9]; “PI: 90%” in assay [10]; “PI: 100%” in the assay with Bacillus subtilis [12]. Moreover, in the assay with Staphylococcus aureus [13], the PI entry was “PI: 100%”. The “PI staining (PI uptake)” value in assay [10] (listed as NCR35) is given as “provoked PI uptake; also recorded: comparable to heat killed bacteria or bacteria treated with polymyxin B”. Further, the CFU % in assay [15] (20 μg/ml) and in assay [15] (50 μg/ml) was 0% throughout. Moreover, the “CFU (colony/ml)” value in [15] (20 μg/ml) came out at 21000 colony/ml; in assay [15] (50 μg/ml), 0 colony/ml. Moreover, the “CFU determination (colony formation)” value in assay [15] (50 μg/ml) was “none formed colony”. Besides, the “eradication of the bacteria” value in [15] is listed as “able to eradicate the bacteria in less than an hour”.

As to “NCR055: cationic NCR peptide (VNDCIRIHCKDDFDCIENRLQVGCRLQREKPRCVNLVCRCLRR; Peptide derived from Medicago truncatula)”, the “Fungal (hyphal) growth, sensitivity” value in the assay with Fusarium graminearum (50 μg/ml) was “−”; with Fusarium graminearum (100 μg/ml), “++”; in the assay with Candida parapsilosis (50 μg/ml) it was “+++”; with Candida parapsilosis (100 μg/ml), “+++”; in assay [1] (50 μg/ml) it was “++”; in [1] (100 μg/ml) it was “+++”. The “Fungal (hyphal) growth, sensitivity” value in the assay with Aspergillus flavus (50 μg/ml) is reported as “+”; in the assay on Aspergillus flavus (100 μg/ml), “++”; in the assay with Candida crusei (50 μg/ml) it was “+++”; in the assay on Candida crusei (100 μg/ml), “+++”; in the assay with Candida albicans (50 μg/ml), “+++”; in the assay on Candida albicans (100 μg/ml), “+++”. Further, the “Fungal (hyphal) growth, sensitivity” value in the assay with Aspergillus niger (50 μg/ml) and with Aspergillus niger (100 μg/ml) was “++” in each case. Further, the CFU result is listed as “CFU: 0” in the assay with Clavibacter michigense [2]; “CFU: 0” in [6]; “CFU: 10^4” with Xanthomonas 2880 [8]; “CFU: 0” in the assay with Bacillus subtilis [11]; “CFU: 0” in [14]; “CFU: 10^5” with Pseudomonas aeruginosa [16]. Also, the CFU result in assay [15] (50 μg/ml) is reported as “CFU: 0”. Besides, the PI entry is “PI: 85%” in assay [4]; “PI: 100%” in the assay on Clavibacter michigense [5]; “PI: 100%” in the assay with Xanthomonas 2880 [7]; “PI: 80%” in [9]; “PI: 80%” in assay [10]; “PI: 100%” in the assay on Bacillus subtilis [12]. The PI entry in the assay on Staphylococcus aureus [13] is “PI: 100%”; in the assay on Pseudomonas aeruginosa [17] it was “PI: 10%”. The “PI staining (PI uptake)” value in [10] (listed as NCR55) is reported as “provoked PI uptake; also recorded: comparable to heat killed bacteria or bacteria treated with polymyxin B”. For the same molecule, the CFU % in [15] (20 μg/ml) and in assay [15] (50 μg/ml) was 0% in each case. The figures for the “CFU (colony/ml)” value in assay [15] (20 μg/ml) and in [15] (50 μg/ml) were 1800 colony/ml and 0 colony/ml, respectively. For the same molecule, the “CFU determination (colony formation)” value in assay [15] (50 μg/ml) is “none formed colony”. Besides, the “eradication of the bacteria” value in [15] is reported as “able to eradicate the bacteria in less than an hour”.

For “NCR057: cationic NCR peptide (RPVSCKDHYDCRRKVKIVGCIFPQEKPMCINSMCTCIREIVP; Peptide derived from Medicago truncatula)”, the CFU entry with Staphylococcus aureus [3] is “CFU: 10^6”; in assay [6], “CFU: 0”; with Bacillus subtilis [11], “CFU: 10^6”; in assay [14] it was “CFU: 10^6”; in assay [15] (50 μg/ml), “CFU: 10^6”. For the same molecule, the PI entry in assay [4] was “PI: 50%”; with Clavibacter michigense [5] it was “PI: 70%”; in the assay with Xanthomonas 2880 [7], “PI: 65%”; in [9], “PI: 60%”; in assay [10] it was “PI: 35%”; in the assay with Staphylococcus aureus [13] it was “PI: 47%”. Besides, the CFU % worked out at 148% in assay [15] (20 μg/ml) and 68% in assay [15] (50 μg/ml). Further, the “CFU (colony/ml)” value in assay [15] (20 μg/ml) is 9800000 colony/ml; in assay [15] (50 μg/ml), 4500000 colony/ml. In [15] (50 μg/ml), the “CFU determination (colony formation)” value is on record as “reduced growth capacity”. The “eradication of the bacteria” value in [15] is “able to eradicate the bacteria in less than an hour”.

Regarding “NCR224: anionic NCR peptide (KDLPFNICEKDEDCLEFCAHDKVAKCMLNICFCF; Peptide derived from Medicago truncatula)”, in assay [15] (20 μg/ml), the CFU % is listed as 130% and the “CFU (colony/ml)” value is on record as 52900000 colony/ml. Further, in assay [15] (50 μg/ml), the CFU % is 48%, the “CFU (colony/ml)” value turned out to be 19600000 colony/ml and the “CFU determination (colony formation)” value was “reduced growth capacity”.
